Patent US6399618B1, “Compositions and methods for modulating sexual activity” (priority 1997, dated 2002)
Counter-ions that a name gives are not always drawn. Marks after values point to notes of the source that are not given here.

Test system: male primates
Assay: Primate sexual behavior, isolated observation study
Assay type: in vivo, Macaca fascilaris
Conditions: for # of behavioral Purse Lip Gesture / # of behavioral Yawning / Grade 0 (glans hidden from view) / Grade 1 (glans clearly visible) / Grade 2 (penis extended) / Grade 3 (full erection) / Grade 4 (erection with masturbation) / Grade 5 (erection with masturbation and ejaculation): isolation, 1 hour, n=6
Procedure: Adult male Macaca fascilaris (3.8-8 kg, n=6) were injected (0.1-10.0 mg/kg; ip; 0.5 mL/kg body weight) with either saline or compound XVIb and observed 10 minutes later for behavioral responses and locomotion for 1 hour. Monkeys used for testing were injected and observed in separate locations remote from housing environment. Each monkey received a dose of XVIb at 72 hour intervals.
In Table 4, the effect of compound XVIb on erectile responses is reported for male primates observed in isolation. Data are expressed as mean (sem, standard error of measurements) for 6 test animals. Penile responses were scored every 10 seconds for 1 hour according to the following scale: Grade 0=glans hidden from view, Grade 1=glans clearly visible, Grade 2=penis extended, Grade 3=full erection, Grade 4=erection with masturbation, Grade 5=erection with masturbation and ejaculation. In Table 4, data marked with an asterisk “*” indicate a significant difference from saline as determined by repeated measures ANOVA and Dunnetts test for multiple comparisons (α<0.05). The data in Table 4 are reported as % genital observations.

## CN1CCN(C(=O)Cc2ccc3ccccc3c2)CC1 [Compound XVIb, 1-Methyl-4(2-naphthaleneacetyl)piperazine monohydrochloride]
0.1 mg/kg ip
  # of behavioral Purse Lip Gesture: 5.8 ± 3.9 #
  # of behavioral Yawning: 8.8 ± 4.5 #
  Grade 0 (glans hidden from view): 81.8 ± 8.2 % genital observations
  Grade 1 (glans clearly visible): 17.8 ± 7.9 % genital observations
  Grade 2 (penis extended): 0.4 ± 0.3 % genital observations
  Grade 3 (full erection): 0 ± 0 % genital observations
  Grade 4 (erection with masturbation): 0 ± 0 % genital observations
  Grade 5 (erection with masturbation and ejaculation): 0 ± 0 % genital observations
0.3 mg/kg ip
  # of behavioral Purse Lip Gesture: 10.2 ± 3.9 #
  # of behavioral Yawning: 11.7 ± 3.8 #
  Grade 0 (glans hidden from view): 67.3 ± 12.2 % genital observations
  Grade 1 (glans clearly visible): 32.8 ± 11.5 % genital observations
  Grade 2 (penis extended): 0.5 ± 0.5 % genital observations
  Grade 3 (full erection): 0 ± 0 % genital observations
  Grade 4 (erection with masturbation): 0 ± 0 % genital observations
  Grade 5 (erection with masturbation and ejaculation): 0 ± 0 % genital observations
1.0 mg/kg ip
  # of behavioral Purse Lip Gesture: 7.5 ± 3.4 #
  # of behavioral Yawning: 11.3 ± 2.5 #
  Grade 0 (glans hidden from view): 72.0 ± 12.0 % genital observations
  Grade 1 (glans clearly visible): 26.6 ± 10.6 % genital observations
  Grade 2 (penis extended): 1.4 ± 1.4 % genital observations
  Grade 3 (full erection): 0 ± 0 % genital observations
  Grade 4 (erection with masturbation): 0 ± 0 % genital observations
  Grade 5 (erection with masturbation and ejaculation): 0 ± 0 % genital observations
3.0 mg/kg ip
  # of behavioral Purse Lip Gesture: 14.0 ± 8.3 #
  # of behavioral Yawning: 13 ± 3.4 #
  Grade 0 (glans hidden from view): 56.8 ± 7.8 % genital observations
  Grade 1 (glans clearly visible): 42.1 ± 8.3 % genital observations
  Grade 2 (penis extended): 1.7 ± 1.4 % genital observations
  Grade 3 (full erection): 0.3 ± 0.3 % genital observations
  Grade 4 (erection with masturbation): 0 ± 0 % genital observations
  Grade 5 (erection with masturbation and ejaculation): 0 ± 0 % genital observations
10.0 mg/kg ip
  # of behavioral Purse Lip Gesture: 33 ± 14* #
  # of behavioral Yawning: 14.0 ± 4.0 #
  Grade 0 (glans hidden from view): 24.5 ± 7.6 % genital observations
  Grade 1 (glans clearly visible): 72.1 ± 7.7* % genital observations
  Grade 2 (penis extended): 2.5 ± 1.0 % genital observations
  Grade 3 (full erection): 0.9 ± 0.6 % genital observations
  Grade 4 (erection with masturbation): 0 ± 0 % genital observations
  Grade 5 (erection with masturbation and ejaculation): 0 ± 0 % genital observations
0.1-10 mg/kg, primates observed in isolation, significance only at the highest dose
  grade 1 penile erections (in words): dose dependently (0.1-10 mg/kg) increased grade 1 penile erections
Any dose (0.1-10 mg/kg)
  Advanced grades of penile erection (grades 2-5) (in words): not significantly affected at any dose
